Patent US20250351820A1, “SUPRAMOLECULAR POROUS ORGANIC FRAMEWORKS FOR STORAGE AND DELIVERY OF VOLATILE GUESTS” (KANSAS STATE UNIVERSITY RESEARCH FOUNDATION, priority 2022, published 2025)

Format: physicochemical
Procedure: In one approach, the HOF encapsulated guest was prepared by dissolving trimesic acid and guest in methanol a 1:8 molar ratio. The mixture was stirred at room temperature for up to 48 hours. The solution was then left undisturbed allowing for slow evaporation to take place until crystals were obtained. For particularly oily guest molecules, an additional solvent was required to dissolve trimesic acid. Successful guest uptake was confirmed by single crystal X-ray diffraction (SCXRD). Thermogravimetric analysis was used to monitor the weight loss as a function of temperature, and ^1H NMR was used to confirm the presence of both host and guest in the sample.
In order to determine to what extent a particular guest is included within the host structure, we carried out thermal gravimetric analysis (TGA) on the resulting samples. A typical TGA measurement will record the weight-loss as a function of temperature and this will allow us to estimate the relative amount of solvent/guest/host present in a particular sample. […] The host itself begins to thermally degrade at around 250° C.

Compound: O=C(O)c1cc(C(=O)O)cc(C(=O)O)c1 [trimesic acid]
- temperature at which the host begins to thermally degrade: around 250 °C
